From US9326513B2, “Fungicidal compositions” (Syngenta Participations AG, priority 2011, dated 2016)

Columns and labels:
Assay type in all cases: in vivo
Details in all cases: foliar, compared to untreated control leaf disks, read-out: disease control
[1] = system: Blumeria graminis f. sp. tritici (Erysiphe graminis f. sp. tritici); test: Blumeria graminis f. sp. tritici / wheat / leaf disc preventative (powdery mildew on wheat)
Method: Blumeria graminis f. sp. tritici (Erysiphe graminis f. sp. tritici)/Wheat/Leaf Disc Preventative (Powdery Mildew on Wheat)
Wheat leaf segments cv. Kanzler were placed on agar in a multiwell plate (24-well format) and sprayed with the formulated test compound diluted in water. The leaf disks were inoculated by shaking powdery mildew infected plants above the test plates 1 day after application. The inoculated leaf disks were incubated at 20° C. and 60% rh under a light regime of 24 h darkness followed by 12 h light/12 h darkness in a climate chamber and the activity of a compound was assessed as percent disease control compared to untreated when an appropriate level of disease damage appears on untreated check leaf segments (6-8 days after application).
The following compounds gave at 200 ppm give at least 50% disease control in this test when compared to untreated control leaf disks under the same conditions, which show extensive disease development: […]

[2] = system: Puccinia recondita f. sp. tritici; test: Puccinia recondita f. sp. tritici / wheat / leaf disc preventative (brown rust)
Excerpt: Puccinia recondita f. sp. tritici/Wheat/Leaf Disc Preventative (Brown Rust) Wheat leaf segments cv. Kanzler were placed on agar in multiwell plates (24-well format) and sprayed with the formulated test compound diluted in water. The leaf disks were inoculated with a spore suspension of the fungus 1 day after application.

[3] = system: Puccinia recondita f. sp. tritici; test: Puccinia recondita f. sp. tritici / wheat / leaf disc curative (brown rust)
Method: Puccinia recondita f. sp. tritici/Wheat/Leaf Disc Curative (Brown Rust) Wheat leaf segments cv. Kanzler are placed on agar in multiwell plates (24-well format). The leaf segments are inoculated with a spore suspension of the fungus. Plates were stored in darkness at 19° C. and 75% rh. The formulated test compound diluted in water was applied 1 day after inoculation.

Measured: pest or weed control at 200 ppm

CCN(C)/C=N/c1cc(-c2ccccc2)c(OC(C)c2cc(F)cc(F)c2)nc1C (stereo not drawn) [Q.263]
≥ 50%: all assays above

CCN(C)/C=N/c1cc(Br)c(OC(C)c2ccccc2C#N)nc1C (stereo not drawn) [Q.305]
≥ 50%: all assays above

CCN(C)/C=N/c1cc(Br)c(OCC[Si](C)(C)C)nc1C [Q.271]
≥ 50%: all assays above

CCN(C)/C=N/c1cc(-c2ccsc2)c(OC(C)c2cc(F)cc(F)c2)nc1C (stereo not drawn) [Q.265]
≥ 50%: all assays above

CCN(C)/C=N/c1cc(Br)c(OC2C=CCCC2)nc1C (stereo not drawn) [Q.172]
≥ 50%: all assays above

CCOc1nc(C)c(/N=C/N(C)CC)cc1Br [Q.085]
≥ 50%: all assays above

CCN(C)/C=N/c1cc(Br)c(OC(C)CC[Si](C)(C)C)nc1C (stereo not drawn) [Q.273]
≥ 50%: all assays above

CCN(C)/C=N/c1cc(Br)c(OC2CCCc3ccc(Br)cc32)nc1C (stereo not drawn) [Q.126]
≥ 50%: all assays above

CCN(C)/C=N/c1cc(Br)c(OCc2ccccc2C#Cc2ccccc2)nc1C [Q.310]
≥ 50%: all assays above

CCN(C)/C=N/c1cc(Br)c(OC2CCC3(CC2)NC(=O)NC3=O)nc1C (stereo not drawn) [Q.072]
≥ 50%: all assays above

CCN(C)/C=N/c1cc(Br)c(OC2CCCC(C)C2)nc1C (stereo not drawn) [Q.149]
≥ 50%: all assays above

CCN(C)/C=N/c1cc(Br)c(OC2Cc3cc(C#N)c(OC)cc3C2)nc1C (stereo not drawn) [Q.369]
≥ 50%: all assays above

CCN(C)/C=N/c1cc(Br)c(OCc2ccc3cccnc3c2)nc1C [Q.351]
≥ 50%: all assays above

CCN(C)/C=N/c1cc(Br)c(OCCCC(CCl)OC=O)nc1C (stereo not drawn) [Q.060]
≥ 50%: all assays above

CCCN/C=N/c1cc(Br)c(OCCCC(C)C)nc1C [Q.010]
≥ 50%: all assays above

CCN(C)/C=N/c1cc(Br)c(OCC(C)F)nc1C (stereo not drawn) [Q.384]
≥ 50%: all assays above

CCN(C)/C=N/c1cc(Br)c(OCc2ccc(Cl)c(Cl)c2)nc1C [Q.064]
≥ 50%: all assays above

CCN(C)/C=N/c1cc(Br)c(OC2CCC(=O)CC2)nc1C [Q.031]
≥ 50%: all assays above

CCN(C)/C=N/c1cc(I)c(O[C@H]2CC[C@H](C(C)C)CC2)nc1C [Q.179]
≥ 50%: all assays above

CCN(C)/C=N/c1cc(Br)c(OC(C)c2ccccc2C(F)F)nc1C (stereo not drawn) [Q.290]
≥ 50%: all assays above

CCN(C)/C=N/c1cc(Br)c(OC2CCc3c(OC)cccc32)nc1C (stereo not drawn) [Q.050]
≥ 50%: all assays above

COc1cc(OC)cc(C(C)Oc2ccc(/N=C/N(C)C(C)C)c(C)n2)c1 (stereo not drawn) [Q.374]
≥ 50%: all assays above

CCN(C)/C=N/c1cc(Br)c(OCC(F)F)nc1C [Q.383]
≥ 50%: all assays above

CCc1ccccc1C(C)Oc1nc(C)c(/N=C/N(C)CC)cc1Br (stereo not drawn) [Q.283]
≥ 50%: all assays above

CCN(C)/C=N/c1cc(Br)c(OC2CCc3ccc(Br)cc3C2)nc1C (stereo not drawn) [Q.127]
≥ 50%: all assays above

C=Cc1ccccc1C(C)Oc1nc(C)c(/N=C/N(C)CC)cc1Br (stereo not drawn) [Q.276]
≥ 50%: all assays above

CCN(C)/C=N/c1cc(Br)c(OC2CCCc3ccc(F)cc32)nc1C (stereo not drawn) [Q.048]
≥ 50%: all assays above

CCN(C)/C=N/c1cc(Br)c(OC2CCCCC2C)nc1C (stereo not drawn) [Q.084]
≥ 50%: all assays above

CCN(C)/C=N/c1cc(Br)c(OC2CCC(O)CC2)nc1C (stereo not drawn) [Q.213]
≥ 50%: all assays above

CCN(C)/C=N/c1cc(Br)c(OC(C)(C)c2cc(-c3ccccc3)no2)nc1C [Q.077]
≥ 50%: all assays above

CCN(C)/C=N/c1cc(Br)c(OC(C)CCc2ccccc2)nc1C (stereo not drawn) [Q.147]
≥ 50%: all assays above

CCN(C)/C=N/c1cc(Br)c(OCC2CC=CC2)nc1C [Q.098]
≥ 50%: all assays above

Cc1nc(OC2CCCCC2C)ccc1/N=C/N(C)C(C)C (stereo not drawn) [Q.342]
≥ 50%: all assays above

CCN(C)/C=N/c1cc(Br)c(OCc2ccc(C)nc2)nc1C [Q.130]
≥ 50%: all assays above

CCN(C)/C=N/c1cc(Br)c(OC(C)c2ccccc2C)nc1C (stereo not drawn) [Q.321]
≥ 50%: all assays above

C=CCN(C)/C=N/c1cc(Br)c(OC(C)c2cc(F)cc(F)c2)nc1C (stereo not drawn) [Q.192]
≥ 50%: all assays above

CCCCCCCCCCOc1nc(C)c(/N=C/N(C)CC)cc1C [Q.058]
≥ 50%: all assays above

CCN(C)/C=N/c1cc(Br)c(OC2CCC(=O)CC2C)nc1C (single isomer, unassigned) [Q.332]
≥ 50%: all assays above

C/C=C/c1cc(/N=C/N(C)CC)c(C)nc1OCc1ccccc1C [Q.385]
≥ 50%: all assays above

CCN(C)/C=N/c1cc(Br)c(OC2CCC(C(C)(C)C)CC2)nc1C (stereo not drawn) [Q.081]
≥ 50%: all assays above

C=CCC(CC=C)Oc1nc(C)c(/N=C/N(C)CC)cc1Br [Q.140]
≥ 50%: all assays above
